Reference: PubChem BioAssay (NCI)
Several values for one entry are separate records, joined by “and”; a condition that tells them apart may be missing. Equal values may be shown once.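 Five concentrations, 48 hours, 96-well plates. At the GI50, growth is halved. At the TGI there is no net growth.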

What was measured:
Test in all cases: NCI tumour cell line growth inhibition, 48 h
NCI-H23 lung = test system: NCI-H23 lung
NCI-H460 lung = test system: NCI-H460 lung
M14 melanoma = test system: M14 melanoma
RXF 393 renal = test system: RXF 393 renal
SR leukemia = test system: SR leukemia
SK-MEL-28 melanoma = test system: SK-MEL-28 melanoma
OVCAR-4 ovarian = test system: OVCAR-4 ovarian
HL-60(TB) leukemia = test system: HL-60(TB) leukemia
TK-10 renal = test system: TK-10 renal
SK-OV-3 ovarian = test system: SK-OV-3 ovarian

| SMILES | GI50 (NCI-H23 lung) | TGI (NCI-H23 lung) | GI50 (NCI-H460 lung) | TGI (NCI-H460 lung) | GI50 (M14 melanoma) | TGI (M14 melanoma) | GI50 (RXF 393 renal) | TGI (RXF 393 renal) | GI50 (SR leukemia) | TGI (SR leukemia) | GI50 (SK-MEL-28 melanoma) | TGI (SK-MEL-28 melanoma) | GI50 (OVCAR-4 ovarian) | TGI (OVCAR-4 ovarian) | GI50 (HL-60(TB) leukemia) | TGI (HL-60(TB) leukemia) | GI50 (TK-10 renal) | TGI (TK-10 renal) | GI50 (SK-OV-3 ovarian) | TGI (SK-OV-3 ovarian) |
| --- | --- | --- | --- | --- | --- | --- | --- | --- | --- | --- | --- | --- | --- | --- | --- | --- | --- | --- | --- | --- |
| CC1(C)CC[C@H](C2=CC(=O)c3c(O)ccc(O)c3C2=O)O1 | 2140 nM and 836 nM and 639 nM | 6.41 µM and 2.07 µM and 2.36 µM | 5140 nM and 1610 nM and 1450 nM | 19.5 µM and 3.36 µM and 3.86 µM | 797 nM and 274 nM and 201 nM | 1.78 µM and 0.859 µM and 0.438 µM | 1390 nM and 2020 nM and 271 nM | 2.93 µM and 3.82 µM and 0.604 µM | 76.4 nM | 1.46 µM | 2170 nM and 979 nM and 571 nM | 5.43 µM and 2.15 µM and 1.16 µM | 1860 nM and 311 nM and 192 nM | 4.3 µM and 1.63 µM and 0.505 µM | 505 nM and 131 nM | 1.36 µM and 0.442 µM | 1500 nM and 1720 nM and 604 nM | 3.98 µM and 3.1 µM and 1.66 µM | 4.81 µM | 18.8 µM and 13.7 µM |
| COCCOCCOCc1n(Cc2ccc3ccccc3n2)c2ccccc2[n+]1Cc1ccc2ccccc2c1 | 386 nM | 10.3 µM | 424 nM | 1.56 µM | 414 nM | 1.94 µM | 1680 nM | 4.46 µM | 273 nM | 1.07 µM | 484 nM | 1.88 µM | 385 nM | 7.42 µM | 187 nM | 0.476 µM | 1040 nM | 2.42 µM | 0.501 µM | 2.68 µM |
| CC/C(=N\NS(=O)(=O)c1ccccc1)c1ccccc1 | – | > 100 µM | – | > 100 µM | – | > 100 µM | – | > 100 µM | – | > 100 µM | – | > 100 µM | – | > 100 µM | – | > 100 µM | – | > 100 µM | – | > 100 µM |
| C[C@H](Cn1ncnn1)Nc1ncc2cc(Oc3ccc(F)cc3F)c(=O)n(C)c2n1 | > 25000 nM | > 25 µM | > 25000 nM | > 25 µM | > 25000 nM | > 25 µM | > 25000 nM | > 25 µM | > 25000 nM | > 25 µM | > 25000 nM | > 25 µM | > 25000 nM | > 25 µM | > 25000 nM | > 25 µM | > 25000 nM | > 25 µM | > 25 µM | > 25 µM |
| O=C/C(=C(/Cl)c1ccc(O)cc1)c1ccccc1 | – | 55.1 µM | – | > 100 µM | – | > 57.1 µM | – | 57.2 µM | – | > 100 µM | – | 41.9 µM | – | > 54 µM | – | > 100 µM | – | > 56 µM | – | 85.8 µM |
| CC1(C)N=C(N)N=C(N)N1c1ccc(OCC(=O)Nc2ccccc2)c(Cl)c1 | 2960 nM | > 100 µM | 74.8 nM | > 100 µM | 13800 nM | > 100 µM | > 87100 nM | > 100 µM | 515 nM | > 51.6 µM | > 58800 nM | > 100 µM | 15800 nM | > 100 µM | 922 nM | > 100 µM | 32400 nM | > 100 µM | > 60.9 µM | > 100 µM |
| O=C1C(SCCO)=C(SCCO)C(=O)c2ccccc21 | – | 2.44 µM | – | 3.49 µM | – | 2.5 µM | – | 2.8 µM | – | 3.74 µM | – | 3.18 µM | – | 0.671 µM | – | 7.91 µM | – | 3.39 µM | – | 3.08 µM |
| CC(=O)[CH-]C(C)=O.[CH2-]C.[CH2-]C.[Tl+3] | > 100000 nM | > 100 µM | > 100000 nM | > 100 µM | > 100000 nM | > 100 µM | > 100000 nM | > 100 µM | > 100000 nM | > 100 µM | > 100000 nM | > 100 µM | > 100000 nM | > 100 µM | > 100000 nM | > 100 µM | > 100000 nM | > 100 µM | > 100 µM | > 100 µM |
| O=C1C=C(O)c2[nH]c(=O)ccc2C1=O | – | > 100 µM | – | > 100 µM | – | > 100 µM | – | > 100 µM | – | > 100 µM | – | > 100 µM | – | 82.5 µM | – | > 100 µM | – | > 100 µM | – | > 100 µM |
| NC(=O)C1(N2CCCCC2)CCN(CCCC(=O)c2ccc(F)cc2)CC1 | 1080 nM | > 20.1 µM | 2700 nM | > 100 µM | 2280 nM | 7.72 µM | 2320 nM | 7.38 µM | 76.1 nM | – | 1080 nM | > 100 µM | 8720 nM | > 100 µM | 801 nM | 4.19 µM | > 26000 nM | > 100 µM | 3.26 µM | 35.3 µM |
| C=C(CN1CCc2ccccc2C1)c1ccc(C(=O)Nc2ccccc2N)cc1 | 677 nM | – | 3060 nM | > 32 µM | 1730 nM | 18.4 µM | 1370 nM | 4.76 µM | 484 nM | > 50 µM | 389 nM | 6.53 µM | 1920 nM | 19.4 µM | 3180 nM | > 12.3 µM | 5740 nM | 14.8 µM | 1.08 µM | 3.17 µM |
| COc1ccc(Nc2nc3ccccc3nc2-c2cccs2)cc1 | – | > 100 µM | – | > 100 µM | – | > 100 µM | – | > 100 µM | – | > 100 µM | – | > 100 µM | – | > 100 µM | – | > 100 µM | – | > 100 µM | – | > 100 µM |
| Cc1ccccc1Nc1nc2c(s1)C(=O)c1ccccc1C2=O | – | 14.1 µM | – | 25.3 µM | – | 12.1 µM | – | 19.3 µM | – | 11.4 µM | – | 27.7 µM | – | 5.13 µM | – | > 100 µM | – | 38.4 µM | – | 38 µM |
